# Reference: publication PMC8409943, “Study on mechanism of low bioavailability of black tea theaflavins by using Caco-2 cell monolayer” (Drug Delivery, 2021)
# Columns and labels:
# Caco-2 cells = test: Intracellular accumulation of theaflavin monomers; settings: 200 μM theaflavins, 2 h incubation, 37 °C
# Method: Caco-2 cells were seeded at a density of 8 × 10^4 cells per well in 6-well plates (Ni et al., [2020]). After differentiation over a period of 21 days, cells were incubated with 2.0 mL of 200 μM theaflavins at 37 °C. After 2 h incubation, phosphate buffer was added to wash cells in the plate. Then, cell lysates were prepared with RIPA lysis buffer containing 1 mM PMSF as a protease inhibitor and centrifugated at 12,000 rpm for 30 min. Total protein contents were quantified using a BCA estimation kit according to the manufacturer’s instructions (Beyotime). Theaflavins were quantified by HPLC analysis and the intracellular accumulation was expressed as µg theaflavin/mg protein.
# Theaflavins were characterized by high performance liquid chromatography (HPLC, Agilent 1100VL, Agilent Technologies Inc., CA, USA). Briefly, samples were extracted with 70% methanol, centrifuged at 685 × g for 10 min, and filtered through a 0.45 μm membrane (Nylon 66). […] Samples were eluted with a gradient of solvent A (100 mL water with 9 mL acetonitrile and 2 mL acetic acid) and B (100 mL acetonitrile with 17.8 mL water and 2 mL acetic acid) as follows: 0–5 min, 95% A; 5–10 min, 90% A; 10–20 min, 70% A; 20–25 min, 65% A; 25–30 min, 70% A; 30–35 min, 100% A. Theaflavins were detected using an ultraviolet detector at a wavelength of 278 nm.
# P-gp [1] = test: Quantitative real-time PCR, mRNA level of P-gp; assay type: cell-based, Human; settings: Caco-2 cells, 200 μM, 2 h, vs control
# Method: (§1) Cell culture and treatment were performed as described above in 2.6. Total RNA was extracted from Caco-2 cells by the cell RNA extraction kit, and then reverse-transcribed by the cDNA synthesis kit. Gene amplification and quantitative detection were performed as previously described (Ai et al., [2019]). Target mRNA levels were normalized to β-actin mRNA levels. Data were calculated by the 2^−ΔΔCT method.
# MRP3 = test: Quantitative real-time PCR, mRNA level of MRP3; assay type: cell-based, Human; settings: Caco-2 cells, 200 μM, 2 h, vs control
# Method: as §1
# P-gp [2] = test: Western blot, protein level of P-gp; assay type: cell-based, Human; settings: Caco-2 cells, 200 μM, 2 h, normalized to β-actin, vs control
# Method: Cell lysates were prepared with RIPA lysis buffer. […] Cell protein (50 μg) was loaded onto SDS polyacrylamide gel (5% stacking gel; 8% separating gel) and separated by electrophoresis for 1.5 h at 20 mA. Next, the separated proteins were transferred onto the PVDF membrane in ice bath for 1.5 h at 120 mA, followed by blocking the membrane with 5% nonfat milk in Tris-buffered saline containing 0.1% Tween-20 (TBST) for 1 h at room temperature. After blocking, the blots were incubated overnight at 4 °C with the primary antibody of P-gp, MRP1, MRP2, MRP3, BCRP (1:200) or β-actin (1:40,000), followed by washing with TBST and incubation for 1 h at room temperature with HRP-conjugated goat anti-rabbit (1:3,000). Immunoreactive proteins were visualized by the ECL detection system, band intensity was quantified by Image Lab (Bio-Rad, CA, USA), and the protein contents were normalized to β-actin.
# MRP1 = test: Quantitative real-time PCR, mRNA level of MRP1; assay type: cell-based, Human; settings: Caco-2 cells, 200 μM, 2 h, vs control
# Method: as §1
# [3] = parameters: method as in Henning et al., 2006; settings: mice treated with decaffeinated black tea (50 mg/g diet) for two weeks; ref Henning et al., 2006; cited from earlier work
# BCRP = test: Quantitative real-time PCR, mRNA level of BCRP; assay type: cell-based, Human; settings: Caco-2 cells, 200 μM, 2 h, vs control
# Method: as §1
# [4] = 2 h, 200 μM
# Method: Standard stock solutions of each theaflavin were diluted with HBSS and DMEM respectively, obtaining final test solutions of 200 μM. The recovery rate of theaflavins in HBSS and in DMEM, in the absence of cells, was analyzed by HPLC after incubation at 37 °C for 0.5, 1, 2, 3, 4, 8, 12, and 24 hours, respectively. The recovery rate was used to measure the stability and calculated as follows: (2) Recovery rate=Ct/C0× 100% where Ct is the final concentration at different incubation time (μM); C0, the initial concentration (μM).
# Theaflavins were characterized by high performance liquid chromatography (HPLC, Agilent 1100VL, Agilent Technologies Inc., CA, USA). Briefly, samples were extracted with 70% methanol, centrifuged at 685 × g for 10 min, and filtered through a 0.45 μm membrane (Nylon 66). The separation was performed by an ODS reversed-phase column (4.6 mm i.d.×250 mm, SB-C18, Agilent Technologies Inc., CA, USA) at a flow rate of 0.7 mL/min. Chromatographic conditions were slightly modified according to China National Standard (GB/T 30483-2013, GAQSIQ, P. R. China, 2013). Samples were eluted with a gradient of solvent A (100 mL water with 9 mL acetonitrile and 2 mL acetic acid) and B (100 mL acetonitrile with 17.8 mL water and 2 mL acetic acid) as follows: 0–5 min, 95% A; 5–10 min, 90% A; 10–20 min, 70% A; 20–25 min, 65% A; 25–30 min, 70% A; 30–35 min, 100% A. Theaflavins were detected using an ultraviolet detector at a wavelength of 278 nm.
smiles,measurement,setting,value
"O=C(O[C@@H]1Cc2c(O)cc(O)cc2O[C@@H]1c1cc(O)c(O)c2c(=O)c(O)cc([C@H]3Oc4cc(O)cc(O)c4C[C@H]3O)cc12)c1cc(O)c(O)c(O)c1 [TF3’G, theaflavin-3’-gallate]",Contents of theaflavins absorbed in Caco-2 cells,Caco-2 cells,-
"O=C(O[C@@H]1Cc2c(O)cc(O)cc2O[C@@H]1c1cc(O)c(=O)c2c(O)c(O)cc([C@H]3Oc4cc(O)cc(O)c4C[C@H]3O)c2c1)c1cc(O)c(O)c(O)c1 [TF3G, theaflavin-3-gallate]",increase of mRNA level of P-gp,P-gp [1],44.45%
same,increase of mRNA level of MRP3,MRP3,34.01%
same,increase of protein level of P-gp,P-gp [2],23.94%
same,increase of mRNA level of MRP1,MRP1,154.97%
"O=C(O[C@@H]1Cc2c(O)cc(O)cc2O[C@@H]1c1cc(O)c(=O)c2c(O)c(O)cc([C@H]3Oc4cc(O)cc(O)c4C[C@H]3OC(=O)c3cc(O)c(O)c(O)c3)c2c1)c1cc(O)c(O)c(O)c1 [TFDG, theaflavin-3, 3’-digallate]",amount in tissue samples,[3],less than 1 nmol/g tissue
same,increase of mRNA level of BCRP,BCRP,35.49%
same,degraded due to the structural instability,[4],11.6%
